# In publication PMC5872235 (2018):
# Where two headings read alike, the source gives them in different places.
# Legend:
# [1] = system: Staphylococcus aureus strains isolated from control group; test: microbe, parasite or virus in culture; conditions: 18 h
# [2] = system: Superantigen negative Staphylococcus aureus (n = 48); test: microbe, parasite or virus in culture; conditions: 18 h
# [3] = system: S. aureus in patients with atopic dermatitis; type: cell-based, Staphylococcus aureus
# [4] = system: Staphylococcus aureus strains isolated from control group
# [5] = system: Staphylococcus aureus strains isolated from atopic dermatitis (AD) patients; test: microbe, parasite or virus in culture; conditions: 18 h
# [6] = system: S. aureus in control group; type: cell-based, Staphylococcus aureus
# [7] = system: Superantigen positive Staphylococcus aureus (n = 52); test: microbe, parasite or virus in culture; conditions: 18 h
# [8] = system: Superantigen positive Staphylococcus aureus (n = 52)
# [9] = system: Staphylococcus aureus strains isolated from atopic dermatitis (AD) patients
# [10] = system: Superantigen negative Staphylococcus aureus (n = 48)
# S. aureus isolates = conditions: cited from earlier work
# [11] = system: vancomycin intermediate S. aureus (VISA) isolates; conditions: cited from earlier work
# [12] = Superantigen positive (n = 52, 18 h)
# [13] = strains isolated from control group, 18 h
# [14] = strains isolated from atopic dermatitis (AD) patients, 18 h
# [15] = Superantigen negative (n = 48, 18 h)
smiles,measurement,setting,value
"CC1(C)S[C@@H]2[C@H](NC(=O)[C@H](N)c3ccccc3)C(=O)N2[C@H]1C(=O)O [Ampicillin, ampicillin]",MIC50,[1],16 µg/mL
same,MIC90,[1],32 µg/mL
same,MIC50,[2],8 µg/mL
same,MIC90,[2],16 µg/mL
same,"Resistance (%), resistant strains",[3],58.5%
same,MIC Range,[4],0.25 to 32 µg/mL
same,MIC50,[5],2 µg/mL
same,MIC90,[5],16 µg/mL
same,"Resistance (%), resistant strains",[6],4%
same,MIC50,[7],1 µg/mL
same,MIC90,[7],8 µg/mL
"CCC[C@@H]1C[C@@H](C(=O)N[C@@H]([C@H]2O[C@H](SC)[C@H](O)[C@@H](O)[C@H]2O)[C@@H](C)O)N(C)C1 [Lincomycin, lincomycin]",MIC50,[1],0.5 µg/mL
same,MIC90,[1],> 512 µg/mL
same,MIC50,[2],1 µg/mL
same,MIC90,[2],64 µg/mL
same,"Resistance (%), resistant strains",[3],37.5%
same,MIC50,[5],1 µg/mL
same,MIC90,[5],64 µg/mL
same,MIC50,[7],1 µg/mL
same,MIC90,[7],16 µg/mL
"CN[C@H](CC(C)C)C(=O)N[C@H]1C(=O)N[C@@H](CC(N)=O)C(=O)N[C@H]2C(=O)N[C@H]3C(=O)N[C@H](C(=O)N[C@H](C(=O)O)c4cc(O)cc(O)c4-c4cc3ccc4O)[C@H](O)c3ccc(c(Cl)c3)Oc3cc2cc(c3O[C@@H]2O[C@H](CO)[C@@H](O)[C@H](O)[C@H]2O[C@H]2C[C@](C)(N)[C@H](O)[C@H](C)O2)Oc2ccc(cc2Cl)[C@H]1O [Vancomycin, vancomycin]",MIC50,[1],1 µg/mL
same,MIC90,[1],1 µg/mL
same,MIC50,[2],1 µg/mL
same,MIC90,[2],2 µg/mL
same,MIC Range,[8],0.125 to 2 µg/mL
same,"Resistance of isolates, in words",[3],none of the isolates were resistant
same,MIC Range,[4],0.25 to 1 µg/mL
same,MIC Range,[9],0.125 to 8 µg/mL
same,MIC50,[5],0.5 µg/mL
same,MIC90,[5],2 µg/mL
same,"Susceptibility of all strains, in words",[6],sensitive
same,MIC Range,[10],0.125 to 2 µg/mL
same,MIC50,[7],0.5 µg/mL
same,MIC90,[7],1 µg/mL
"C/C(=C\C(=O)OCCCCCCCCC(=O)O)C[C@@H]1OC[C@H](C[C@@H]2O[C@H]2[C@@H](C)[C@H](C)O)[C@@H](O)[C@H]1O [Mupirocin, mupirocin]",MIC50,[1],0.25 µg/mL
same,MIC90,[1],32 µg/mL
same,MIC50,[2],0.25 µg/mL
same,MIC90,[2],512 µg/mL
same,"Resistance (%), resistant strains",[3],17.5%
same,MIC Range,[4],0.125 to 32 µg/mL
same,MIC50,[5],0.5 µg/mL
same,MIC90,[5],> 512 µg/mL
same,"Susceptibility of all strains, in words",[6],sensitive
same,MIC50,[7],0.5 µg/mL
same,MIC90,[7],> 512 µg/mL
"CC(=O)O[C@H]1C[C@@]2(C)[C@@H](C[C@@H](O)[C@H]3[C@@]4(C)CC[C@@H](O)[C@@H](C)[C@@H]4CC[C@@]32C)/C1=C(\CCC=C(C)C)C(=O)O [Fusidic acid, fusidic acid]",MIC50,[1],1 µg/mL
same,MIC90,[1],16 µg/mL
same,MIC50,[2],0.125 µg/mL
same,MIC90,[2],4 µg/mL
same,MIC Range,[8],0.0625 to 32 µg/mL
same,"Resistance (%), resistant strains",[3],15.5%
same,MIC Range,[4],0.125 to 16 µg/mL
same,S. aureus isolates resistant,S. aureus isolates,50%
same,MIC Range,[9],0.312 to 32 µg/mL
same,MIC50,[5],0.125 µg/mL
same,MIC90,[5],8 µg/mL
same,MIC Range,[10],0.0312 to 32 µg/mL
same,MIC50,[7],0.125 µg/mL
same,MIC90,[7],8 µg/mL
"CCCCCCCCCC(=O)N[C@@H](Cc1c[nH]c2ccccc12)C(=O)N[C@H](CC(N)=O)C(=O)N[C@@H](CC(=O)O)C(=O)N[C@@H]1C(=O)NCC(=O)N[C@@H](CCCN)C(=O)N[C@@H](CC(=O)O)C(=O)N[C@H](C)C(=O)N[C@@H](CC(=O)O)C(=O)NCC(=O)N[C@H](CO)C(=O)N[C@@H]([C@H](C)CC(=O)O)C(=O)N[C@@H](CC(=O)c2ccccc2N)C(=O)O[C@@H]1C [Daptomycin, daptomycin]",MIC50,[8]; [12],2 µg/mL
same,MIC90,[8]; [12],2 µg/mL
same,MIC Range,[8]; [12],0.125 to 4 µg/mL
same,"Resistance (%), resistant strains",[3],54.7%
same,MIC,[11],4 µg/mL
same,minimum inhibitory concentration (MIC),[11],2 µg/mL
same,MIC50,[4]; [13],2 µg/mL
same,MIC90,[4]; [13],2 µg/mL
same,MIC Range,[4]; [13],1 to 2 µg/mL
same,MIC50,[9]; [14],2 µg/mL
same,MIC90,[9]; [14],4 µg/mL
same,MIC Range,[9]; [14],0.125 to 4 µg/mL
same,"Resistance (%), resistant strains",[6],4%
same,MIC50,[10]; [15],2 µg/mL
same,MIC90,[10]; [15],4 µg/mL
same,MIC Range,[10]; [15],0.0625 to 4 µg/mL
